In US8962691B2, “Retinoid replacements and opsin agonists and methods for the use thereof” (University of Washington, priority 2003, dated 2015):

Tested on: Rpe65−/− mice
Assay: Analyses of retinoids and visual pigments in eyes of Rpe65−/− mice given 9-cis-retinal
Assay type: in vivo, mouse
Experimental: All of the procedures were performed under dim red light as described previously (Van Hooser et al., Proc. Natl. Acad. Sci. USA 97:8623-28 (2000); Jang et al., J. Biol. Chem. 276:32456-65 (2001); Palczewski et al., Biochemistry 38:12012-19 (1999)). In addition to previously described methods, retinoid analysis was performed on an HP 1100 series high pressure liquid chromatograph (HPLC) equipped with a diode array detector and HP Chemstation A.07.01 software, allowing identification of retinoid isomers according to their specific retention time and absorption maxima. A normal phase column (Beckman Ultrasphere Si 5μ, 4.6×250 mm) and an isocratic solvent system of 0.5% ethyl acetate in hexane (v/v) for 15 minutes followed by 4% ethyl acetate in hexane for 60 minutes at a flow rate of 1.4 ml/minute at 20° C. (total 75 min) with detection at 325 nm allowed the separation of 11-cis-, 13-cis-, and all-trans-retinyl esters. In addition, all of the study procedures related to the analysis of dissected mouse eyes, derivatization, and separation of retinoids have been described previously in detail (Van Hooser et al., Proc. Natl. Acad. Sci. USA 97:8623-28 (2000)). Rhodopsin and iso-rhodopsin measurements were performed as described previously (Palczewski et al., Biochemistry 38:12012-19 (1999)). Typically, two mouse eyes were used per assay, and the assays were repeated three to six times. The data are presented with S.E.M.
Oral gavage was carried out as described previously (Van Hooser et al., Proc. Natl. Acad. Sci. USA 97:8623-28 (2000)).
The chemicals were purchased from Sigma/Aldrich unless otherwise specified. Solution A contained 10 mg of 9-cis-retinal, 75 mg of Cremophor EL, 1 mg of α-tocopherol, and 0.6 mg of benzoic acid suspended in 1 ml of lactated Ringer's solution (Baxter). The mixture was vortexed for 10 minutes and centrifuged for 10 minutes at 20,000×g, and the concentration of 9-cis-retinal (7.7 mM) was determined spectrophotometrically. Solution B contained 13 mg of 9-cis-retinal, 50 mg of Cremophor EL, 10 mg of dipalmitoylphosphatidyl choline, and 40 mg of 2-hydroxypropyl-β-cyclodextrin suspended in 1 ml of lactated Ringer's solution (Baxter). The mixture was vortexed for 10 minutes and centrifuged for 10 minutes at 20,000×g, and the concentration of 9-cis-retinal (10 mM) was determined spectrophotometrically. Solutions A and B (typically, 100 μl) were delivered to the mouse lateral tail vein employing a 1-ml syringe equipped with a 27-gauge needle and a restraint tube.

## CC1=C(/C=C/C(C)=C\C=C\C(C)=C\C=O)C(C)(C)CCC1 [9-cis-retinal]
0.25 mg
  axial density of iso-rhodopsin as share of rhodopsin in Rpe65+/+ rods: 16%
  free opsin as share of total available pigment: 72%
1.25 mg
  axial density of iso-rhodopsin as share of rhodopsin in Rpe65+/+ rods: 21%
  free opsin as share of total available pigment: 63%
2.5 mg
  amount of iso-rhodopsin: 300 pmol
  free opsin in rods: no free opsin
  iso-rhodopsin as share of rhodopsin in Rpe65+/+ rods: about 57%
  number of iso-rhodopsin molecules in rods: about 1.2×10^7
2.5 mg dose gavage
  iso-rhodopsin formed: 300±25 pmol of iso-rhodopsin/eye
2.5 mg, after 48 hour more than three intense flashes at 1-hour intervals
  iso-rhodopsin and 9-cis-retinyl esters after flashes: significantly depleted
2.5 mg, five flashes at 24-hour intervals
  retinyl esters from liver and RPE after flashes: completely depleted
0.25-mg dose every other day from PND 7 until 30 days old
  all-trans-retinyl ester accumulation: dramatic change in the ester accumulation
0.25-mg dose gavage
  iso-rhodopsin formed: 85.6±6.2 pmol/eye
1.25-mg dose gavage
  iso-rhodopsin formed: 109.8 pmol of iso-rhodopsin/eye
6-month-old (FIG. 2B) compared with FIG. 2A
  decrease of iso-rhodopsin with age: 50%
6 month-old Rpe65−/− mice treated twice, 2.5 mg/dose
  reduction of ester levels compared with untreated animals: > 50%
6 month-old mice, 2.5 mg/dose twice at PND 30 and 34, 30 and 120, or 30 and 150
  iso-rhodopsin levels between dosing regimens: comparable
48 hours after treatment
  pigment deficit of Rpe65−/− rods relative to Rpe65+/+: approximately 40%
Rpe65−/− mice in the dark
  time rod photopigment is produced and maintained: more than 6 months
Continued administration of 1 dose (1.25 mg) per week after early treatment
  overall amounts of all-trans-retinyl esters: dramatically suppressed
Intravenous injection, addition of cyclodextrin
  accumulation of 9-cis-retinyl esters in the liver or RPE: higher accumulation
Intravenous injection, with and without cyclodextrins
  iso-rhodopsin production: produced iso-rhodopsin
Single 2.5 mg dose at 1 month, 12-hour light/dark cycle or 24 hour dark for 37 days
  depletion of retinal (iso-rhodopsin level): No appreciable depletion of retinal
Treatment began after more than 1 month of age
  removal of accumulated esters in the RPE: not removed
